Measurements taken from patent publication US5444064A, “Method of treating gastrointestinal malignancies” (Montefiore Medical Center, priority 1989, dated 1995).

What was measured:
[1] = test system: SW480 cells; assay: Cytokinetic studies (cell cycle distribution by flow cytometry), SW480; assay type: cell-based, human
[2] = test system: HT-29 cells; assay: Cytokinetic studies (cell cycle distribution by flow cytometry), HT-29; assay type: cell-based, human
[3] = test system: disseminated colorectal cancer; settings: cited from earlier work
[4] = 5-fluorouracil 50-500 uM, 24 hour incubation

O=c1[nH]cc(F)c(=O)[nH]1 [5-fluorouracil]
depletion of G2M [1, 4]: nearly complete depletion of G2M
effect on cell cycle versus HT-29 ([1]; 5-fluorouracil and alpha-2a-interferon alone or in combination, data not shown): qualitatively identical effects
prolongation of the block in G0/G1 ([1]; data not shown): 24 h
depletion of G2M [2, 4]: nearly complete depletion of G2M
time to depletion of G2M compartment ([2]; time course, from start of incubation): ≤ 7 h
completeness and duration of response ([3]; human, in vivo): rarely respond completely and the duration of the response is generally short
remissions ([3]; patients with disseminated colorectal cancer): 15-35%
median survival ([3]; versus untreated controls): no better than that of untreated controls
